The record followed here is patent US12685312B2, “Sulfonamide apyrase inhibitors” (Texas Crop Science, Inc., priority 2022, dated 2026).

Molecules are shown by their SMILES.

The assay concerns apyrase. Put plainly: Screen for apyrase inhibitors (Method 1, in vitro phosphate-release absorbance assay). The settings on record: inhibitor conc at 1 mM stock, 1 hr room temperature, absorbance 630 nm; rounded average of two assay results. It counts as biochemical. Here is the method:
Apyrase inhibitors useful as enhancers of pesticidal activity are assessed using an in vitro assay. The method of Windsor, Bio Techniques 33:1024-1030 (November 2002) was used as follows Screen for Apyrase Inhibitors- 96 well plates were used for the assay: (Greiner bio-one: REF-655901-96 well, PS, F-bottom, Clear, Non-binding) Buffers: • Reaction Buffer: 60 mM Hepes; 3 mM MgCl2, 3 mM CaCl2 and 3 mM ATP (pH 6.5) • Development Buffer A: 2% aqueous ammonium molybdate • Development Buffer B: 11% ascorbic acid in 37.5% TCA in water • Stop buffer C: 2% trisodium citrate in 2% acetic acid solution in water • Add 100 μl of reaction buffer to each well. • Add 10 μl of DMSO (control) or inhibitor/compound or compounds such as […] or orthovanadate to each well. […] A blank cell indicates either <10% observed inhibition or a large difference between repetitions. In certain examples, the lack of observed inhibition is due to a lack of solubility of the compound under assay conditions, rather than a lack of apyrase inhibitory activity.
For `NS(=O)(=O)c1cc(C(=O)Nc2ccc(S(=O)(=O)Nc3ccc(Cl)cc3)cc2)ccc1Cl` [I-987, 4-chloro-N-(4-(N-(4-chlorophenyl)sulfamoyl)phenyl)-3-sulfamoylbenzamide], the “% Inhibition of Apyrase” value was found to be 55%. With `O=C(Nc1cccc(S(=O)(=O)N2CCOCC2)c1)c1ccc(S(=O)(=O)Nc2ccc(Cl)cc2)cc1` [I-393, 4-(N-(4-chlorophenyl)sulfamoyl)-N-(3-(morpholinosulfonyl)phenyl)benzamide], the “% Inhibition of Apyrase” value is on record as 57%. Next, `Cc1ccc(C(=O)N2CCc3ccccc32)cc1S(=O)(=O)Nc1ccc(F)cc1` [I-569, N-(4-fluorophenyl)-5-(indoline-1-carbonyl)-2-methylbenzenesulfonamide]: 51%; `Cc1ccc(NC(=O)c2ccc(NS(=O)(=O)c3ccc(F)cc3)cc2)cc1C` [I-918, N-(3,4-dimethylphenyl)-4-((4-fluorophenyl)sulfonamido)benzamide]: 58%.

Consider `COc1ccc(CC(=O)Nc2cccc(S(=O)(=O)Nc3ccc(Br)cc3)c2)cc1F` [I-330, N-(3-(N-(4-bromophenyl)sulfamoyl)phenyl)-2-(3-fluoro-4-methoxyphenyl)acetamide], for which the “% Inhibition of Apyrase” value stood at 65%.

In the case of `CC1Cc2ccccc2N1S(=O)(=O)c1cccc(C(=O)N2CCCc3cc(F)c(F)cc32)c1` (stereo not drawn) [I-571, (6,7-difluoro-3,4-dihydroquinolin-1(2H)-yl)(3-((2-methylindolin-1-yl)sulfonyl)phenyl)methanone], the “% Inhibition of Apyrase” value worked out at 51%. In the case of `COc1ccc2c(c1)CCCN2C(=O)c1ccc(S(=O)(=O)Nc2ccccc2F)cc1` [I-883, N-(2-fluorophenyl)-4-(6-methoxy-1,2,3,4-tetrahydroquinoline-1-carbonyl)benzenesulfonamide], the “% Inhibition of Apyrase” value was found to be 51%. Regarding `Cc1ccc(F)cc1NC(=O)c1cccc(S(=O)(=O)N2CCc3ccccc32)c1` [I-517, N-(5-fluoro-2-methylphenyl)-3-(indolin-1-ylsulfonyl)benzamide], the “% Inhibition of Apyrase” value was 56%.

In the case of `COc1ccc(Cl)cc1NC(=O)c1cccc(S(=O)(=O)N2CCc3ccccc32)c1` [I-548, N-(5-chloro-2-methoxyphenyl)-3-(indolin-1-ylsulfonyl)benzamide], the “% Inhibition of Apyrase” value came out at 53%. Next, `CCOc1ccc(NS(=O)(=O)c2cccc(NC(=O)c3ccncc3)c2)cc1Br` [I-765, N-(3-(N-(3-bromo-4-ethoxyphenyl)sulfamoyl)phenyl) isonicotinamide]: 15%; `Cc1ccccc1NS(=O)(=O)c1ccc(C(=O)Nc2cccc([N+](=O)[O-])c2C)cc1` [I-404, N-(2-methyl-3-nitrophenyl)-4-(N-(o-tolyl)sulfamoyl)benzamide]: 38%; `O=C(Nc1cccc(OC(F)F)c1)c1cccc(S(=O)(=O)Nc2cccc(C(F)(F)F)c2)c1` [I-1007, N-(3-(difluoromethoxy)phenyl)-3-(N-(3-(trifluoromethyl)phenyl)sulfamoyl)benzamide]: 33%. For the compound `Cc1cccc(NC(=O)c2ccc(Cl)c(S(=O)(=O)N3CCc4ccccc43)c2)c1` [I-555, 4-chloro-3-(indolin-1-ylsulfonyl)-N-(m-tolyl)benzamide], the “% Inhibition of Apyrase” value was determined as 52%. On to `Cc1cccc(NC(=O)c2ccc(NS(=O)(=O)c3ccc(Br)cc3)cc2)c1` [I-936, 4-((4-bromophenyl)sulfonamido)-N-(m-tolyl)benzamide], for which the “% Inhibition of Apyrase” value was 52%. On to `COc1ccc(C(=O)Nc2ccc(Cl)cc2)cc1S(=O)(=O)Nc1ccc(Br)cc1` [I-33, 3-(N-(4-bromophenyl)sulfamoyl)-N-(4-chlorophenyl)-4-methoxybenzamide], for which the “% Inhibition of Apyrase” value stood at 19%. With `O=C(Nc1cc(Cl)ccc1N1CCOCC1)c1cccc(S(=O)(=O)N2CCc3ccccc32)c1` [I-549, N-(5-chloro-2-morpholinophenyl)-3-(indolin-1-ylsulfonyl)benzamide], the “% Inhibition of Apyrase” value came out at 53%. For `COc1ccc(N(C)S(=O)(=O)c2cccc(C(=O)Nc3ccc(Br)cc3)c2)cc1` [I-267, N-(4-bromophenyl)-3-(N-(4-methoxyphenyl)-N-methylsulfamoyl)benzamide], the “% Inhibition of Apyrase” value stood at 58%.

`Cc1ccc(NS(=O)(=O)c2cccc(C(=O)Nc3c(C)cc(C)cc3C)c2)c(C)c1` [I-508, 3-(N-(2,4-dimethylphenyl)sulfamoyl)-N-mesitylbenzamide]: the “% Inhibition of Apyrase” value was 57%.

`Cc1cc(C(=O)Nc2cccc(S(=O)(=O)Nc3ccccc3Cl)c2)sc1C` [I-713, N-(3-(N-(2-chlorophenyl)sulfamoyl)phenyl)-4,5-dimethylthiophene-2-carboxamide]: the “% Inhibition of Apyrase” value came out at 58%. As for `Cc1ccc(NC(=O)c2cccc(S(=O)(=O)N3CCc4ccccc43)c2)c(OCC2CCCO2)c1` (stereo not drawn) [I-552, 3-(indolin-1-ylsulfonyl)-N-(4-methyl-2-((tetrahydrofuran-2-yl)methoxy)phenyl)benzamide], the “% Inhibition of Apyrase” value is 53%. Next, `O=C(Nc1cccc([N+](=O)[O-])c1)c1ccc(Br)c(S(=O)(=O)Nc2ccc(Br)cc2)c1` [I-22, 4-bromo-3-(N-(4-bromophenyl)sulfamoyl)-N-(3-nitrophenyl)benzamide]: 38%; `CC(=O)c1cccc(NC(=O)c2ccc(S(=O)(=O)Nc3ccc(C)cc3)cc2)c1` [I-398, N-(3-acetylphenyl)-4-(N-(p-tolyl)sulfamoyl)benzamide]: 44%; `CN(c1ccccc1)S(=O)(=O)c1ccccc1C(=O)Nc1ccc(C(N)=O)cc1` [I-816, N-(4-carbamoylphenyl)-2-(N-methyl-N-phenylsulfamoyl)benzamide]: 29%. With `Cc1c(Cl)cccc1NC(=O)c1cccc(S(=O)(=O)N2CCc3ccccc32)c1` [I-455, N-(3-chloro-2-methylphenyl)-3-(indolin-1-ylsulfonyl)benzamide], the “% Inhibition of Apyrase” value stood at 60%. On to `CC1Cc2ccccc2N1C(=O)c1ccc(S(=O)(=O)Nc2ccccc2)cc1` (stereo not drawn) [I-857, 4-(2-methylindoline-1-carbonyl)-N-phenylbenzenesulfonamide], for which the “% Inhibition of Apyrase” value came out at 76%. As for `O=C(Nc1ccc(S(=O)(=O)Nc2cccc(C(F)(F)F)c2)cc1)c1cccc(F)c1` [I-998, 3-fluoro-N-(4-(N-(3-(trifluoromethyl)phenyl)sulfamoyl)phenyl) benzamide], the “% Inhibition of Apyrase” value is reported as 34%.

`O=C(Nc1ccc(Br)cc1)c1cccc(S(=O)(=O)Nc2ccc(Br)cc2)c1` [I-20, N-(4-bromophenyl)-3-(N-(4-bromophenyl)sulfamoyl)benzamide]: the “% Inhibition of Apyrase” value stood at 45%. For `O=C(Nc1ccc2c(c1)OCCCO2)c1ccc(S(=O)(=O)Nc2ccc(F)cc2)cc1` [I-415, N-(3,4-dihydro-2H-benzo[b][1,4]dioxepin-7-yl)-4-(N-(4-fluorophenyl)sulfamoyl)benzamide], the “% Inhibition of Apyrase” value came to 13%. As to `NS(=O)(=O)c1cccc(NC(=O)c2cccc(S(=O)(=O)N3CCc4ccccc43)c2)c1` [I-529, 3-(indolin-1-ylsulfonyl)-N-(3-sulfamoylphenyl)benzamide], the “% Inhibition of Apyrase” value is 55%. As to `CC1Cc2ccccc2N1S(=O)(=O)c1cccc(C(=O)N2CCc3cccc(F)c32)c1` (stereo not drawn) [I-494, (7-fluoroindolin-1-yl)(3-((2-methylindolin-1-yl)sulfonyl)phenyl)methanone], the “% Inhibition of Apyrase” value turned out to be 57%.

Consider `COc1ccc(NC(=O)c2cccc(NS(=O)(=O)c3cc(Cl)ccc3Cl)c2)cn1` [I-654, 3-((2,5-dichlorophenyl)sulfonamido)-N-(6-methoxypyridin-3-yl)benzamide], for which the “% Inhibition of Apyrase” value was determined as 42%. As for `Cc1ccc2c(c1)CCCN2C(=O)c1cccc(S(=O)(=O)Nc2ccccc2F)c1` [I-574, N-(2-fluorophenyl)-3-(6-methyl-1,2,3,4-tetrahydroquinoline-1-carbonyl)benzenesulfonamide], the “% Inhibition of Apyrase” value came to 49%. Consider `COc1ccc(NS(=O)(=O)c2cccc(C(=O)Nc3ccc(C#N)cc3)c2)cc1` [I-1006, N-(4-cyanophenyl)-3-(N-(4-methoxyphenyl)sulfamoyl)benzamide], for which the “% Inhibition of Apyrase” value came out at 42%. Next, `N#Cc1cccc(NC(=O)c2cccc(NS(=O)(=O)c3ccc(Cl)c(Cl)c3)c2)c1` [I-316, N-(3-cyanophenyl)-3-((3,4-dichlorophenyl)sulfonamido)benzamide]: 69%. Turning to `O=C(Nc1ccccc1NS(=O)(=O)c1cccs1)c1ccc(C(F)(F)F)cc1` [I-836, N-(2-(thiophene-2-sulfonamido)phenyl)-4-(trifluoromethyl)benzamide], the “% Inhibition of Apyrase” value amounted to 49%.

As for `N#Cc1cc(C(=O)Nc2cccc(NS(=O)(=O)c3ccccc3)c2)ccc1Cl` [I-210, 4-chloro-3-cyano-N-(3-(phenylsulfonamido)phenyl)benzamide], the “% Inhibition of Apyrase” value is given as 73%. In the case of `CNC(=O)c1ccc(NC(=O)c2ccc(S(=O)(=O)Nc3ccc(C)cc3)cc2)cc1` [I-874, N-methyl-4-(4-(N-(p-tolyl)sulfamoyl)benzamido)benzamide], the “% Inhibition of Apyrase” value was found to be 56%.

On to `O=C(Nc1cccc(S(=O)(=O)Nc2ccc(Br)cc2)c1)c1ccc([N+](=O)[O-])s1` [I-702, N-(3-(N-(4-bromophenyl)sulfamoyl)phenyl)-5-nitrothiophene-2-carboxamide], for which the “% Inhibition of Apyrase” value is on record as 73%. For `O=C(Nc1ccccc1NS(=O)(=O)c1cccs1)c1cccc(Cl)c1` [I-828, 3-chloro-N-(2-(thiophene-2-sulfonamido)phenyl)benzamide], the “% Inhibition of Apyrase” value stood at 65%.
